According to patent US12617762B2, “Carboxy derivatives with antiinflamatory properties” (Sitryx Therapeutics Limited, priority 2019, dated 2026):
Where two headings read alike, the source gives them in different places.

What was measured:
[1] = Hepatocyte stability assay, human; assay type: in vitro ADME; details: human, hepatocytes; for hepatocyte CLint at 10 μM: Hepatocyte stability Clint; for half-life at 10 μM: Hepatocyte stability T½
Procedure, shortened: (§1)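 Cryopreserved hepatocytes (viability >70%), 0.5×10^6 cells/mL in Leibovitz buffer, preincubated 10 min at 37° C, then 10 μM compound (0.1% DMSO) in duplicate; sampled 0-60 min, acetonitrile quench, LC-MS/MS. CLint and half-life from ln % remaining vs time; buffer-only incubation as negative control.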

[2] = test system: NRF2 (nuclear factor erythroid 2-related factor 2); assay: NRF2 +/-GSH activation assay (DiscoverX PathHunter NRF2 translocation kit, U2OS cells); assay type: cell-based; details: for NRF2 activation +GSH Emax / NRF2 activation −GSH Emax / −GSH Emax: normalised to DMF high control
Procedure, shortened: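 U2OS PathHunter eXpress cells, 24 h post-plating, treated with compound ±GSH (+GSH arm: 30 min compound–GSH pre-incubation, 6 mM working GSH), then 6 h at 37 °C. NRF2 nuclear translocation read by enzyme-fragment-complementation chemiluminescence; % activation normalised to DMF high and untreated low controls.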

[3] = test system: IL-1β cytokine output from THP-1s; assay: THP-1 AlphaLISA IL-1β cytokine inhibition assay; assay type: cell-based; details: for IC50: Homo sapiens
Procedure, shortened: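 THP-1 cells differentiated with PMA for 72 h, pre-incubated with compound 30 min, then LPS-primed 24 h and Nigericin-stimulated 1 h (37° C./5% CO2). Supernatant IL-1β measured by AlphaLISA; percentage inhibition normalised to +LPS (high) and −LPS (low) plate controls.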

[4] = Hepatocyte stability assay, mouse; assay type: in vitro ADME; details: mouse, hepatocytes; for hepatocyte CLint at 10 μM: Hepatocyte stability Clint; for half-life at 10 μM: Hepatocyte stability T½
Procedure, shortened: as §1

[5] = test system: IL-6 cytokine output from THP-1s; assay: THP-1 AlphaLISA IL-6 cytokine inhibition assay; assay type: cell-based; details: Homo sapiens, LPS then nigericin
Procedure, shortened: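 THP-1 cells differentiated with PMA for 72 h, then pre-incubated with compound 30 min, stimulated with LPS 24 h, then Nigericin 1 h, all at 37° C. Supernatant IL-6 measured by AlphaLISA. Percentage inhibition normalized to +/− LPS plate controls.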

[6] = +GSH, 30 minute compound-GSH pre-incubation, read-out: NRF2 activation +GSH EC50
[7] = −GSH, U2OS PathHunter cells, 6 hours compound treatment, read-out: NRF2 activation −GSH EC50
[8] = THP-1, differentiated THP-1 cells, LPS then nigericin
[9] = −GSH, Table 5 exo vs endo comparison, read-out: −GSH EC50
[10] = −GSH, Table 5 exo vs endo comparison
[11] = THP-1, Table 3, head to head comparison of exo vs endo double bond compounds
[12] = THP-1, differentiated THP-1 cells

Row | SMILES | hepatocyte CLint at 10 μM [1] [µL/min/1e6 cells] | half-life at 10 μM [1] [min] | EC50 [2, 6] [µM] | NRF2 activation +GSH Emax ([2]; +GSH) [%] | EC50 [2, 7] [µM] | NRF2 activation −GSH Emax ([2]; −GSH) [%] | IC50 [3, 8] [µM] | hepatocyte CLint at 10 μM [4] [µL/min/1e6 cells] | half-life at 10 μM [4] [min] | IC50 ([5]; differentiated THP-1 cells) [µM] | EC50 [2, 9] [µM] | −GSH Emax [2, 10] [%] | IC50 [3, 11] [µM] | IC50 [5, 12] [µM] | IL-1β lowering, result in words ([3]; THP-1 IL-1β assay)
1 | C=C(Cc1noc(C(F)(F)c2ccc(Br)cc2)n1)C(=O)O [Example 85, 2-((5-((4-bromophenyl)difluoromethyl)-1,2,4-oxadiazol-3-yl)methyl)acrylic acid] | 20 | 77 | 34.7 | 208 | 21.6 | 282 | 13.6 | 131 | 13 | 18.5 | – | – | – | – | –
2 | C=C(Cc1nc(C2(c3ccc(SC(F)(F)F)cc3)CC2)no1)C(=O)O [Example 86, 2-((3-(1-(4-((trifluoromethyl)thio)phenyl)cyclopropyl)-1,2,4-oxadiazol-5-yl)methyl)acrylic acid] | 7 | 235 | 35 | 221 | 18 | 320 | 8.4 | 17 | 103 | – | 18 | 320 | 8.4 | 9.4 | –
3 | C=C(Cc1nc(C(F)(F)c2ccc(SC(F)(F)F)cc2)no1)C(=O)O [Example 155, 2-((3-(difluoro(4-((trifluoromethyl)thio)phenyl)methyl)-1,2,4-oxadiazol-5-yl)methyl)acrylic acid] | 8 | 201 | 13.7 | 123 | 11.2 | 201 | 9.1 | 87 | 17 | 13.1 | – | – | – | – | –
4 | C=C(Cc1noc(C2(c3ccc(Br)cc3)CC2)n1)C(=O)O [Example 89, 2-((5-(1-(4-bromophenyl)cyclopropyl)-1,2,4-oxadiazol-3-yl)methyl)acrylic acid] | 38 | 41 | 42.2 | 63 | 30.7 | 99 | 12.2 | 336 | 5 | 33.4 | – | – | – | – | –
5 | C=C(Cc1nc([C@H](C)CCCCCC)no1)C(=O)O [Example 40, (R)-2-((3-(octan-2-yl)-1,2,4-oxadiazol-5-yl)methyl)acrylic acid] | 21 | 66 | 27.5 | 81 | 25.3 | 168 | 27 | 82 | 20 | – | – | – | – | 18.1 | –
6 | C=C(Cc1nc(C2(c3ccc(F)cc3)CC2)no1)C(=O)O [Example 44, 2-((3-(1-(4-fluorophenyl)cyclopropyl)-1,2,4-oxadiazol-5-yl)methyl)acrylic acid] | 10 | 144 | > 100 | 23 | 28.7 | 65 | > 100 | 37 | 44 | – | – | – | – | 29.9 | not effective
7 | C=C(Cc1ncc(CCCCCCCC)o1)C(=O)O [Example 59, 2-((5-octyloxazol-2-yl)methyl)acrylic acid] | > 460 | < 3 | 5.4 | 136 | 3.9 | 213 | 6.9 | > 460 | < 3 | 7.2 | – | – | – | – | –
8 | C=C(Cc1nc(C2(c3ccc(S(F)(F)(F)(F)F)cc3)CC2)no1)C(=O)O [Example 77, 2-((3-(1-(4-(pentafluoro-λ^6-sulfaneyl)phenyl)cyclopropyl)-1,2,4-oxadiazol-5-yl)methyl)acrylic acid] | < 3 | > 460 | 52.7 | 69 | 48.1 | 210 | 7.6 | 10 | 189 | – | 48.1 | 210 | 7.6 | 14.6 | –
9 | C=C(Cc1nc(CCCCCCCCCCC)no1)C(=O)O [Example 56, 2-((3-undecyl-1,2,4-oxadiazol-5-yl)methyl)acrylic acid] | > 460 | < 3 | 3.1 | 110 | 2.8 | 175 | 3.4 | > 460 | < 3 | – | – | – | – | 3.3 | –
10 | C=C(Cc1nc(C2CC3(C2)CC2(CCC2)C3)no1)C(=O)O [Example 62, 2-((3-(dispiro[3.1.3^6.1^4]decan-2-yl)-1,2,4-oxadiazol-5-yl)methyl)acrylic acid] | 57 | 26 | 27.4 | 149 | 20 | 229 | 17.9 | 119 | 10 | – | – | – | – | 21.5 | –
11 | C=C(Cc1nc(CCCCCCC(F)(F)C(F)(F)F)no1)C(=O)O [Example 17, 2-((3-(7,7,8,8,8-pentafluorooctyl)-1,2,4-oxadiazol-5-yl)methyl)acrylic acid] | 42 | 34 | 8.7 | 140 | 5.1 | 179 | 19.3 | 105 | 12 | – | – | – | – | 5.3 | –
12 | C=C(C(=O)O)C(OC)c1nc(CCCCCCCC)no1 (centres unmarked) [Example 110, 2-(methoxy(3-octyl-1,2,4-oxadiazol-5-yl)methyl)acrylic acid] | > 460 | < 3 | 48.8 | 132 | 38.9 | 153 | > 31.6 | > 460 | < 3 | 9.8 | – | – | – | – | –
13 | C=C(Cc1nc(C(F)(F)c2ccc(CCCC)cc2)no1)C(=O)O [Example 91, 2-((3-((4-butylphenyl)difluoromethyl)-1,2,4-oxadiazol-5-yl)methyl)acrylic acid] | 74 | 21 | 3.4 | 190 | 3.2 | 231 | 3.8 | 320 | 6 | 2.4 | – | – | – | – | –
